Laboratory results taken from US20260265233A1, “BENZOTHIOPHENE DERIVATIVES AS RXFP1 AGONISTS” (BRISTOL-MYERS SQUIBB COMPANY, priority 2021, published 2026).

Assays:
[1] = target: T1, human RXFP1 (Homo sapiens, UniProt Q9HBX9); assay: hRXFP1 HEK293 cAMP assay (HTRF); format: cell-based; conditions: HEK293 cells stably expressing human RXFP1; 30 min at rt; intracellular cAMP by HTRF
T1 construct: expressed in transfected cells
T1 sequence (Q9HBX9 1-757): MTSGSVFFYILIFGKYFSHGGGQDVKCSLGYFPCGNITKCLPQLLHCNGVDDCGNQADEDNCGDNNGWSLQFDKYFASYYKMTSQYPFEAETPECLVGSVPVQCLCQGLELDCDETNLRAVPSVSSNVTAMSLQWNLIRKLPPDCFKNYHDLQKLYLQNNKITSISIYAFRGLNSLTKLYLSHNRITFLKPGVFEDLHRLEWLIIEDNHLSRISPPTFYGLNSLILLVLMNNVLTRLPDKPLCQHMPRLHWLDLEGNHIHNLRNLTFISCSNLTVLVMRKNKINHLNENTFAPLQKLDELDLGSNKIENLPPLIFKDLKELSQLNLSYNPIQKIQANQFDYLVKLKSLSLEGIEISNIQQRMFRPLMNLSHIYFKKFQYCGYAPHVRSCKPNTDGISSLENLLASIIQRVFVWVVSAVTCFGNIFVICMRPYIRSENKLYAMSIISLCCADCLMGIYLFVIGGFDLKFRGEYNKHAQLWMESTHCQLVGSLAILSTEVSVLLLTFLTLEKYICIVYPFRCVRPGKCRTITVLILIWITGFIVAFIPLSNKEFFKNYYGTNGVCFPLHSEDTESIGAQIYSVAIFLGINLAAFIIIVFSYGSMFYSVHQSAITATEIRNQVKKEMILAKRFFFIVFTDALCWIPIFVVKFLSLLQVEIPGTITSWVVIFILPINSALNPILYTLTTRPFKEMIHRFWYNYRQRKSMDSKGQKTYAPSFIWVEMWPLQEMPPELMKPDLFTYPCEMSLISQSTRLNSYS
Summary of the method: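 Agonism is measured as cAMP by HTRF, quantified from a standard curve via the 665/590 nm ratio and fitted with a four-parameter logistic equation. Compounds (0.010 nM to 50 μM final, 2% DMSO) were applied for 30 min at rt to human RXFP1-expressing HEK293 cells in assay buffer containing 0.5 mM IBMX.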

[2] = intravenous (IV) formulation; cited from earlier work

Row | Compound | EC50 [1] | first-phase pharmacokinetic half-life [2]
1 | COc1ccc(C2=NOC3(C2)CN(C(=O)C(C)(C)CO)C3)cc1C(=O)Nc1c(C(=O)Nc2ccc(F)c(C(F)(F)F)c2)sc2cc(C(F)(F)F)ccc12 [Example 283, N-(4-fluoro-3-(trifluoromethyl)phenyl)-3-(5-(2-(3-hydroxy-2,2-dimethyl-propanoyl)-5-oxa-2,6-diazaspiro[3.4]oct-6-en-7-yl)-2-methoxy-benzamido)-6-(trifluoromethyl) benzo[b] thiophene-2-carboxamide] | 1120 nM | 
2 | COc1ccc(C2=NOC3(C2)CN(C(=O)C(C)(C)O)C3)cc1C(=O)Nc1c(C(=O)Nc2ccc(F)c(C(F)(F)F)c2)sc2cc(C(F)(F)F)ccc12 [Example 284, N-(4-fluoro-3-(trifluoromethyl)phenyl)-3-(5-(2-(2-hydroxy-2-methylpropanoyl)-5-oxa-2,6-diazaspiro[3.4]oct-6-en-7-yl)-2-methoxy-benzamido)-6-(trifluoromethyl) benzo[b] thiophene-2-carboxamide] | 1300 nM | 
3 | COc1ccc(C2=NOC3(C2)CN(C(=O)CO)C3)cc1C(=O)Nc1c(C(=O)Nc2ccc(F)c(C(F)(F)F)c2)sc2cc(C(F)(F)F)ccc12 [Example 285, N-(4-fluoro-3-(trifluoromethyl)phenyl)-3-(5-(2-(2-hydroxyacetyl)-5-oxa-2,6-diazaspiro[3.4]oct-6-en-7-yl)-2-methoxy-benzamido)-6-(trifluoromethyl) benzo[b] thiophene-2-carboxamide] | 1860 nM | 
4 | COc1ccc(C2=NOC3(CNC3)C2)cc1C(=O)Nc1c(C(=O)Nc2ccc(F)c(C(F)(F)F)c2)sc2cc(C(F)(F)F)ccc12 [Example 286, N-(4-fluoro-3-(trifluoromethyl)phenyl)-3-(2-methoxy-5-(5-oxa-2,6-diazaspiro[3.4]oct-6-en-7-yl)benzamido)-6-(trifluoromethyl) benzo[b] thiophene-2-carboxamide] | 5000 nM | 
5 | COc1ccc(-c2cc(CO)on2)cc1C(=O)Nc1c(C(=O)Nc2ccc(F)c(C(F)(F)F)c2)sc2cc(C(F)(F)F)ccc12 [Example 287, N-(4-fluoro-3-(trifluoromethyl)phenyl)-3-(5-(5-(hydroxymethyl)isoxazol-3-yl)-2-methoxy-benzamido)-6-(trifluoromethyl) benzo[b] thiophene-2-carboxamide] | 1260 nM | 
6 | COc1ccc(-c2cc(C(=O)O)ccc2F)cc1C(=O)Nc1c(C(=O)Nc2ccc(F)c(C(F)(F)F)c2)sc2nc(C)ccc12 [Example 288, 6-fluoro-3′-[(2-{[4-fluoro-3-(trifluoromethyl)phenyl]carbamoyl}-6-methylthieno[2,3-b]pyridin-3-yl)carbamoyl]-4′-methoxy-[1,1′-biphenyl]-3-carboxylic acid] | 4260 nM | 
7 | COc1ccc(-c2cc(C(=O)O)ccc2F)cc1C(=O)Nc1c(C(=O)Nc2ccc(F)c(C(F)(F)F)c2)sc2ncccc12 [Example 289, 6-fluoro-3′-[(2-{[4-fluoro-3-(trifluoromethyl)phenyl]carbamoyl}thieno[2,3-b]pyridin-3-yl)carbamoyl]-4′-methoxy-[1,1′-biphenyl]-3-carboxylic acid] | 2050 nM | 
8 | COc1ccc(N2CCCC2=O)cc1C(=O)Nc1c(C(=O)Nc2ccc(F)c(C(F)(F)F)c2)sc2cc(C(F)(F)F)ccc12 [Example 290, N-[4-fluoro-3-(trifluoromethyl)phenyl]-3-[2-methoxy-5-(2-oxopyrrolidin-1-yl)benzamido]-6-(trifluoromethyl)-1-benzothiophene-2-carboxamide] | 1410 nM | 
9 | (R)-6-chloro- N-(4-fluoro-3- (trifluoromethyl) phenyl)-3-(5- (2- (hydroxymethyl) morpholine- 4-carbonyl)-2- methoxy- benzamido) thieno[3, 2-c]pyridine-2- carboxamide [Example 239] | 2100 nM | 
10 | N-(4-fluoro-3- (trifluoromethyl) phenyl)-3-(4- methoxy-3′- (morpholino- sulfonyl)-[1,1′- biphenyl]-3- carboxamido)- 6- (trifluoromethyl) benzo[b] thiophene-2- carboxamide [Example 122] | 41.8 nM | 
11 | Serelaxin: "an intravenous (IV) formulation of the recombinant human relaxin peptide with a relatively short first-phase pharmacokinetic half-life of 0.09 hours" |  | 5.4 min
